Structures are written as SMILES.

Chain of Cathepsin D (P07339 65-162 limits assumed): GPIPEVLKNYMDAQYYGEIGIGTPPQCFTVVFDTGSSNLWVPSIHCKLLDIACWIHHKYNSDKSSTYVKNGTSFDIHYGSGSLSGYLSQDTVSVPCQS
Chain of Cathepsin D (P07339 169-412 limits assumed): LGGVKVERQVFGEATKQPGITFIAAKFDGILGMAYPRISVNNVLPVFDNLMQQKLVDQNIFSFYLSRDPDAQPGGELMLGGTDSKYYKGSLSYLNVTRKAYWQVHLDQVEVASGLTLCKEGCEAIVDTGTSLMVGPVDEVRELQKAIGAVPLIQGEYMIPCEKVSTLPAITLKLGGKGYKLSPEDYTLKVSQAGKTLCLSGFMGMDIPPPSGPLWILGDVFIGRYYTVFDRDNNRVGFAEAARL

The test addresses Cathepsin D (Homo sapiens, UniProt P07339). The test can be described thus: High Through-Put Fluorescence Assay. The conditions noted are these: pH 3.7. An excerpt: A fluorometric high through-put assay for inhibitor towards human liver cathepsin D from Calbiochem.
In turn, `O=C(COc1cc(Cl)c(Cl)cc1Cl)N[C@@H](c1ccccc1)[C@H](O)CN(CCc1ccc2c(c1)OCO2)C(=O)CCN1C(=O)c2ccccc2C1=O` [(R)-EHD] had a Ki greater than 5000 nM.
The compound `O=C(COc1ccc(Cl)c(Cl)c1)N[C@@H](c1ccccc1)[C@H](O)CN(CCc1ccc2c(c1)OCO2)C(=O)CCN1C(=O)c2ccccc2C1=O` [(R)-EHO] displayed an IC50 greater than 5000 nM.
In turn, `O=C(CCn1c(=O)oc2ccccc21)N[C@@H](c1ccccc1)C(O)CN(CCc1ccc2c(c1)OCO2)C(=O)CCc1ccc(Cl)c(Cl)c1` (stereo partly specified) [EFA] had a Ki of 171 nM.
`O=C(CCn1c(=O)oc2ccccc21)N[C@@H](c1ccccc1)C(O)CN(CCc1ccc2c(c1)OCO2)C(=O)CCN1C(=O)c2ccccc2C1=O` (stereo partly specified) [EHA] yielded a Ki of 131 nM.
Compound `O=C(COc1cc(Cl)c(Cl)cc1Cl)N[C@@H](c1ccccc1)C(O)CN(CCc1ccc2c(c1)OCO2)C(=O)CCN1C(=O)c2ccccc2C1=O` (stereo partly specified) [EHD] registered a Ki of 73 nM.
On the same count and under the same terms, in the case of `COc1ccc(C(=O)N[C@@H](c2ccccc2)C(O)CN(CCc2ccc3c(c2)OCO3)C(=O)CCN2C(=O)c3ccccc3C2=O)c(Cl)c1OC` (stereo partly specified) [EHJ] it was 111 nM.
`O=C(COc1ccc(Cl)cc1Cl)N[C@@H](c1ccccc1)C(O)CN(CCc1ccc2c(c1)OCO2)C(=O)CCN1C(=O)c2ccccc2C1=O` (stereo partly specified) [EHM] yielded an IC50 of 14 nM and a Ki of 9 nM.
For `O=C(COc1ccc(Cl)c(Cl)c1)N[C@@H](c1ccccc1)C(O)CN(CCc1ccc2c(c1)OCO2)C(=O)CCN1C(=O)c2ccccc2C1=O` (stereo partly specified) [EHO], in that order: 19 nM and 15 nM.
The matching figures for `O=C(COc1cccc(Cl)c1)N[C@@H](c1ccccc1)C(O)CN(CCc1ccc2c(c1)OCO2)C(=O)CCN1C(=O)c2ccccc2C1=O` (stereo partly specified) [EHR]: 20 nM and 15 nM.
`COc1cc(Br)c(C(=O)N[C@@H](c2ccccc2)C(O)CN(CCc2ccc3c(c2)OCO3)C(=O)CCN2C(=O)c3ccccc3C2=O)cc1OC` (stereo partly specified) [EHS] gave a concentration for half-maximal inhibition (IC50) of 64 nM and an inhibitory constant (Ki) of 59 nM.
Turning to `COc1cccc(CCN(CC(O)[C@@H](NC(=O)Cn2c(O)csc2=S)c2ccccc2)C(=O)NC2CCCCC2)c1` (stereo partly specified) [FBB], the affinity, expressed as Ki, was 356 nM.
`CCCCCCC(=O)N(CCc1cccc(OC)c1)CC(O)[C@@H](NC(=O)Cn1c(O)csc1=S)c1ccccc1` (stereo partly specified) [FDB] displayed a Ki of 595 nM.
As for `O=C(CCn1c(=O)oc2ccccc21)N[C@@H](c1ccccc1)C(O)CN(CCc1ccc(Cl)cc1Cl)C(=O)CCN1C(=O)c2ccccc2C1=O` (stereo partly specified) [FHA], the affinity, expressed as Ki, was 231 nM.
Compound `O=C(COc1ccc(Cl)c(Cl)c1)N[C@@H](c1ccccc1)C(O)CN(CCc1ccc(Cl)cc1Cl)C(=O)CCN1C(=O)c2ccccc2C1=O` (stereo partly specified) [FHO] gave an IC50 of 18 nM and a Ki of 14 nM.
The matching figures for `Cc1ccc(CCN(CC(O)[C@@H](NC(=O)COc2cc(Cl)c(Cl)cc2Cl)c2ccccc2)C(=O)CCN2C(=O)c3ccccc3C2=O)cc1` (stereo partly specified) [UHD]: 229 nM and 224 nM.

Source of the values: BindingDB's records for doi:10.1016/s1074-5521(97)90073-9 (University of California Berkeley, 1997).
